{"source": "paper PMC6946680", "about": "“Modulation of brain cation-Cl^− cotransport via the SPAK kinase inhibitor ZT-1a” (Nature Communications, 2020)", "key": {"KCC3 pThr1048": {"test_system": "KCC3 pThr1048", "test": "Immunoblot of KCC site 2 phosphorylation (KCC3 Thr1048) in HEK-293 cells transfected with FLAG-KCC3", "format": "cell-based, human", "settings": "Fig S4b"}, "[1]": {"test": "ZT-1a pharmacokinetic properties in naive mice", "format": "in vivo, ICR mice", "settings": "mouse, plasma; for MRT inf: read-out: MRT(0-∞)", "description": "1 Supplemental Table 3. ZT-1a pharmacokinetic (PK) properties in naïve mice.\n2 ZT-1a pharmacokinetics were determined following a single 5 mg/kg intravenous (IV) dose and a single 10 mg/kg oral (PO) dose in\n3 ICR mice (N = 3 at each time point).\nSamples were subjected to drug assay by LC-MS/MS, and data were analyzed by WinNonlin V6.3. Tmax =\n5 time of maximum plasma concentration, Cmax = maximum plasma concentration, AUC = area under the curve (measure of exposure),\n6 T1/2 = half life, CL = plasma clearance, Vz = volume of distribution, MRT, mean residence time; F = oral bioavailability."}, "tSPAK tOSR1 [2]": {"test_system": "tSPAK tOSR1", "test": "Immunoblot of total SPAK/OSR1 in ischemic mouse brain membrane and cytosol fractions", "format": "in vivo", "settings": "Cytosol; IL; single samples"}, "tSPAK tOSR1 [3]": {"test_system": "tSPAK tOSR1", "test": "Immunoblot of total SPAK/OSR1 in ischemic mouse brain membrane and cytosol fractions", "format": "in vivo", "settings": "Membrane, single samples", "excerpt": "Supplement 41467_2019_13851_MOESM4_ESM.zip/Source Data.xlsx, sheet \"Fig S11b and c\" | column: tSPAK tOSR1/Na K pump (fold veh-CL)"}, "KCC3 pThr991": {"test_system": "KCC3 pThr991", "test": "Immunoblot of KCC site 1 phosphorylation (KCC3 Thr991) in HEK-293 cells transfected with FLAG-KCC3", "format": "cell-based, human", "settings": "for KCC3 pThr991 / KCC3: Fig S4b"}, "GST–[T233E]SPAK kinase": {"biological_target": "T1, GST–[T233E]SPAK kinase (Homo sapiens, UniProt Q9UEW8, T231E)", "T1 construct": "made in house; host or cells: E. coli", "test": "SPAK kinase assay with CATCHtide and IC50 determination", "format": "biochemical", "excerpt": "II. Experimental procedures\n1. Reagents and General methods\nTissue culture reagents were from Life Technologies. P81 phosphocellulose paper was from Whatman […]\nand [γ-32P]-ATP was from Perkin Elmer. […] Protein G […]\nsepharose was from Amersham. DNA constructs used for transfection were purified from Escherichia coli DH5α using Qiagen or Invitrogen plasmid Maxi kits according to the manufacturer's protocol. All DNA constructs were verified by DNA sequencing.\n2. Plasmids, protein expression and purification\nDNA clones were from the Division of Signal Transduction Therapy (University of Dundee). The SPAK proteins were expressed in E. Coli and purified as described previously 1.\n3. SPAK kinase assays and IC50 determination\nSPAK kinase assays employed CATCHtide (cation chloride co-transporter peptide substrate). Peptide kinase assays, performed in triplicate, were set up in a total volume of 50 μl containing 0.5 μg GST– […]\ncpm/pmol) and the indicated concentrations of inhibitor dissolved in DMSO. After incubation for 30 min at 30°C, reactions were terminated by spotting 40 μl of the reaction mix onto P81 phosphocellulose paper and immersion in 50 mM phosphoric acid. The papers were washed extensively and incorporation of [γ-32P]ATP into CATCHtide was quantified by Cerenkov counting.\nIC50 values were calculated with GraphPad Prism using non-linear regression analysis.\n4. Fluorescence polarization […]\nconcentrations between 0.00001 to 1 mM. Data points are the means of three determinations, with error […]\nA Supplemental Fig. 7 Effects of increasing concentrations of ZT-1a on SPAK activity in the absence […]\nthe absence or presence of five-fold molar excess of wild-type MO25α. b Kinetic data determined for B ZT-1a in the absence or presence of five-fold molar excess of wild-type MO25α. Data are means of […]\npresence of wild-type MO25α."}}, "note": "Where “and” joins values, the source holds several entries; their conditions need not be identical. Equal entries are not always repeated. Where two headings read alike, the source gives them in different places.", "data": [{"smiles": "Cc1cc(C(C#N)c2ccc(Cl)cc2)c(Cl)cc1NC(=O)c1cc(Cl)ccc1O", "note": "(stereo not drawn) [ZT-1a, 5-chloro-N-(5-chloro-4-((4-chlorophenyl)(cyano)methyl)-2-methylphenyl)-2-hydroxybenzamide]", "values": [{"measurement": "KCC3 pThr1048 / KCC3", "setting": "KCC3 pThr1048; ZT-1a 0.3 uM", "result": "0.52 and 0.601 and 0.501 and 0.473"}, {"measurement": "KCC3 pThr1048 / KCC3", "setting": "KCC3 pThr1048; ZT-1a 3 uM", "result": "0.31 and 0.301 and 0.253 and 0.205"}, {"measurement": "AUC", "setting": "[1]; ICR, intravenous, 5 mg/kg, naive mice", "result": 2.34, "unit": "µg·h/mL"}, {"measurement": "half-life", "setting": "[1]; ICR, intravenous, 5 mg/kg, naive mice, read-out: T1/2 (plasma half-life) (converted)", "result": 1.8, "unit": "h"}, {"measurement": "half-life", "setting": "[1]; ICR, iv, 5 mg/kg, IV 5 mg/kg, ICR mice, read-out: t1/2 (converted)", "result": 1.8, "unit": "h"}, {"measurement": "bioavailability", "setting": "[1]; ICR, oral, 10 mg/kg, naive mice", "result": 2.2, "unit": "%"}, {"measurement": "half-life", "setting": "[1]; ICR, po, 10 mg/kg, PO 10 mg/kg, ICR mice, read-out: t1/2 (converted)", "result": 2.6, "unit": "h"}, {"measurement": "AUC(0-inf)", "setting": "[1]; IV 5 mg/kg, ICR mice", "result": 2.35, "unit": "µg·h/mL"}, {"measurement": "AUC(0-t)", "setting": "[1]; IV 5 mg/kg, ICR mice", "result": 2.34, "unit": "µg·h/mL"}, {"measurement": "C0", "setting": "[1]; IV 5 mg/kg, ICR mice", "result": 14.9, "unit": "µg/mL"}, {"measurement": "Cmax", "setting": "[1]; IV 5 mg/kg, ICR mice", "result": 6.91, "unit": "µg/mL"}, {"measurement": "Tmax", "setting": "[1]; IV 5 mg/kg, ICR mice", "result": 0.08, "unit": "h"}, {"measurement": "clearance", "setting": "[1]; IV 5 mg/kg, ICR mice", "result": 2.13, "unit": "L/h/kg"}, {"measurement": "MRT inf", "setting": "[1]; IV 5 mg/kg, ICR mice", "result": 0.45, "unit": "h"}, {"measurement": "Vd", "setting": "[1]; IV 5 mg/kg, ICR mice, read-out: Vz", "result": 0.948, "unit": "L/kg"}, {"measurement": "AUC(0-inf)", "setting": "[1]; PO 10 mg/kg, ICR mice", "result": 0.105, "unit": "µg·h/mL"}, {"measurement": "AUC(0-t)", "setting": "[1]; PO 10 mg/kg, ICR mice", "result": 0.0973, "unit": "µg·h/mL"}, {"measurement": "Cmax", "setting": "[1]; PO 10 mg/kg, ICR mice", "result": 0.094, "unit": "µg/mL"}, {"measurement": "Tmax", "setting": "[1]; PO 10 mg/kg, ICR mice", "result": 0.25, "unit": "h"}, {"measurement": "bioavailability", "setting": "[1]; PO 10 mg/kg, ICR mice", "result": 2.2, "unit": "%"}, {"measurement": "MRT inf", "setting": "[1]; PO 10 mg/kg, ICR mice", "result": 3.3, "unit": "h"}, {"measurement": "tSPAK tOSR1/GAPDH (fold veh-CL)", "setting": "tSPAK tOSR1 [2]", "result": "1.10 fold veh-CL and 1.64 fold veh-CL and 1.23 fold veh-CL and 1.65 fold veh-CL and 0.87 fold veh-CL"}, {"measurement": "tSPAK tOSR1/Na K pump (fold veh-CL)", "setting": "tSPAK tOSR1 [3]", "result": "0.93 fold veh-CL and 1.11 fold veh-CL and 1.70 fold veh-CL and 1.17 fold veh-CL and 1.58 fold veh-CL"}, {"measurement": "inhibition at 3 µM", "setting": "KCC3 pThr991; Homo sapiens, HEK293, 3 µM, HEK-293 cells, n = 4, read-out: inhibition of phosphorylation of KCC sites 1/2", "result": "65 to 77", "unit": "%"}, {"measurement": "KCC3 pThr991 / KCC3", "setting": "KCC3 pThr991; ZT-1a 0.3 uM", "result": "0.89 and 0.932 and 0.861 and 0.828"}, {"measurement": "KCC3 pThr991 / KCC3", "setting": "KCC3 pThr991; ZT-1a 1 uM", "result": "0.63 and 0.651 and 0.702 and 0.601"}, {"measurement": "KCC3 pThr991 / KCC3", "setting": "KCC3 pThr991; ZT-1a 3 uM", "result": "0.65 and 0.601 and 0.553 and 0.517"}, {"measurement": "change of SPAK IC50 values on addition of MO25α", "setting": "GST–[T233E]SPAK kinase", "result": "not significantly altered"}, {"measurement": "SPAK kinase activity signal (Fig S3 source data)", "setting": "GST–[T233E]SPAK kinase; ATP 0.01 mM, inhibitor 1e-5 uM", "result": "911 and 899 and 905"}, {"measurement": "SPAK kinase activity signal (Fig S3 source data)", "setting": "GST–[T233E]SPAK kinase; ATP 0.01 mM, inhibitor 0.0001 uM", "result": "906 and 879 and 883"}, {"measurement": "SPAK kinase activity signal (Fig S3 source data)", "setting": "GST–[T233E]SPAK kinase; ATP 0.01 mM, inhibitor 0.001 uM", "result": "901 and 899 and 907"}, {"measurement": "SPAK kinase activity signal (Fig S3 source data)", "setting": "GST–[T233E]SPAK kinase; ATP 0.01 mM, inhibitor 0.003 uM", "result": 805}, {"measurement": "SPAK kinase activity signal (Fig S3 source data)", "setting": "GST–[T233E]SPAK kinase; ATP 0.01 mM, inhibitor 0.03 uM", "result": "855 and 847 and 825"}, {"measurement": "SPAK kinase activity signal (Fig S3 source data)", "setting": "GST–[T233E]SPAK kinase; ATP 0.01 mM, inhibitor 0.1 uM", "result": "867 and 893 and 851"}, {"measurement": "SPAK kinase activity signal (Fig S3 source data)", "setting": "GST–[T233E]SPAK kinase; ATP 0.01 mM, inhibitor 0.3 uM", "result": "813 and 804 and 787"}, {"measurement": "SPAK kinase activity signal (Fig S3 source data)", "setting": "GST–[T233E]SPAK kinase; ATP 0.01 mM, inhibitor 1 uM", "result": "756 and 821 and 793"}, {"measurement": "SPAK kinase activity signal (Fig S3 source data)", "setting": "GST–[T233E]SPAK kinase; ATP 0.01 mM, inhibitor 3 uM", "result": "663 and 688 and 705"}, {"measurement": "SPAK kinase activity signal (Fig S3 source data)", "setting": "GST–[T233E]SPAK kinase; ATP 0.01 mM, inhibitor 10 uM", "result": "478 and 525 and 503"}, {"measurement": "SPAK kinase activity signal (Fig S3 source data)", "setting": "GST–[T233E]SPAK kinase; ATP 0.01 mM, inhibitor 100 uM", "result": "456 and 325 and 371"}, {"measurement": "SPAK kinase activity signal (Fig S3 source data)", "setting": "GST–[T233E]SPAK kinase; ATP 0.01 mM, inhibitor 1000 uM", "result": "220 and 194 and 213"}, {"measurement": "SPAK kinase activity signal (Fig S3 source data)", "setting": "GST–[T233E]SPAK kinase; ATP 0.1 mM, inhibitor 1e-5 uM", "result": "902 and 887 and 849"}, {"measurement": "SPAK kinase activity signal (Fig S3 source data)", "setting": "GST–[T233E]SPAK kinase; ATP 0.1 mM, inhibitor 0.0001 uM", "result": "867 and 845 and 874"}, {"measurement": "SPAK kinase activity signal (Fig S3 source data)", "setting": "GST–[T233E]SPAK kinase; ATP 0.1 mM, inhibitor 0.001 uM", "result": "844 and 856 and 837"}, {"measurement": "SPAK kinase activity signal (Fig S3 source data)", "setting": "GST–[T233E]SPAK kinase; ATP 0.1 mM, inhibitor 0.03 uM", "result": "798 and 815 and 804"}, {"measurement": "SPAK kinase activity signal (Fig S3 source data)", "setting": "GST–[T233E]SPAK kinase; ATP 0.1 mM, inhibitor 0.1 uM", "result": "796 and 805 and 782"}]}]}
